What was measured:
Format in all cases: biochemical
PRC2/EZH2 = PRC2/EZH2 (Homo sapiens, UniProt Q15910); assay: EZH2/PRC2 assay (core histone, 3H-SAM); settings: 10-dose, duplicate, from 400 μM
Protocol: (§1) The newly synthesized compounds 4a–n were tested to determine their effects against acetylation and methylation epigenetic targets. First, 4a–n were screened in vitro against the two HAT enzymes p300 and PCAF. […] To determine the activity against SIRT1 and -2, 4a–n were tested starting from 200 μM solutions using a modified Fluor de Lys fluorescence-based assay with amino acids 379–382 (Arg-His-Lys-Lys(Ac)) of human p53 conjugated with aminomethylcoumarin as substrate and NAD^+ as co-substrate. […] Furthermore, 4a–n were tested against a human five-membered Polycomb repressive complex 2 (PRC2) containing EZH2, embryonic ectoderm development (EED), suppressor of zeste 12 (SUZ12), RbAp48, and adipocyte enhancer-binding protein (AEBP2), to assess their capability to inhibit the catalytic unit EZH2.
The EZH2 substrate (0.05 mg/mL core histone) was added in the freshly prepared reaction buffer (50 mM Tris-HCl (pH 8.0), 50 mM NaCl, 1 mM EDTA, 1 mM DTT, 1 mM PMSF, 1% DMSO). The PRC2 complex (complex of human EZH2, human EED, human SUZ12, human AEBP2, and human RbAp48) was delivered into the substrate solution and the mixture was mixed gently. Afterwards, the tested compounds dissolved in DMSO were delivered into the enzyme/substrate reaction mixture by using Acoustic Technology (Echo 550, LabCyte Inc. Sunnyvale, CA, USA) in nanoliter range, and ^3H-SAM was added into the reaction mixture to initiate the reaction. The reaction mixture was incubated for 1 h at 30 °C and then it was delivered to filter-paper for detection. The data were analyzed using Excel and GraphPad Prism software for IC50 curve fits. The experiments were performed in duplicate.

PCAF = target: T1, PCAF (Homo sapiens, UniProt Q92831); assay: HotSpot HAT activity assay, PCAF; settings: 10-dose, from 200 μM; histone H3, [acetyl-3H]-acetyl-CoA
T1 construct: PCAF (aa 492–658, 250 nM); purchased Reaction Biology Corporation
Protocol: as §1
The effect of tested derivatives on the catalytic activity of p300 and PCAF was determined in a HotSpot HAT activity assay by Reaction Biology Corporation (Malvern, PA, USA) according to the company’s standard operating procedure. In brief, the recombinant catalytic domains of PCAF (aa 492–658, 250 nM) or p300 (aa 1284–1673, 30 nM) were incubated with histone H3 as substrate (5 µM) and [Acetyl-^3H]-Acetyl Coenzyme A (3 µM) as an acetyl donor in reaction buffer (50 mM Tris-HCl (pH 8.0), 50 mM NaCl, 0.1 mM EDTA, 1 mM DTT, 1 mM PMSF, 1% DMSO) for 1 h at 30 °C in the presence or absence of a dose titration of the compounds. The reaction mixture was delivered to filter-paper for detection. IC50 values were analyzed using Excel and GraphPad Prism 6.0 software (GraphPad Software Inc., San Diego, CA, USA). The experiments for p300 were performed in triplicate.

CARM1 = target: T2, CARM1 (Homo sapiens, UniProt Q86X55); assay: CARM1 assay (histone H3, 3H-SAM)
T2 sequence (Q86X55 1-608): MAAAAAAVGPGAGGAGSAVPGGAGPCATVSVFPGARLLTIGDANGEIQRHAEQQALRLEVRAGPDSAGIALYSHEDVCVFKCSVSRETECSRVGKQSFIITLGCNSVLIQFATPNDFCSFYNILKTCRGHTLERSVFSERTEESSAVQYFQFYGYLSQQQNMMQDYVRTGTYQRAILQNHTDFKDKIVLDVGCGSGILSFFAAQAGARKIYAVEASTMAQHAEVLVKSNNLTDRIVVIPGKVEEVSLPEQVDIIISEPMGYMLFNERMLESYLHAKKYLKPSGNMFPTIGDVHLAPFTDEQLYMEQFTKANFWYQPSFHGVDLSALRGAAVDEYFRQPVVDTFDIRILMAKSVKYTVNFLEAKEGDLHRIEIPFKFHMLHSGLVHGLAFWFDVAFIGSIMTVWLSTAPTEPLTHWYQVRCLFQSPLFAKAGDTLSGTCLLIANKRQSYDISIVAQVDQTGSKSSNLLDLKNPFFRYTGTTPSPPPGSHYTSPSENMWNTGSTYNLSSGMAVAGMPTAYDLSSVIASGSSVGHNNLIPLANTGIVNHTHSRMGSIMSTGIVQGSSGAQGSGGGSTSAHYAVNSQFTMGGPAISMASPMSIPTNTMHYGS
Protocol: Histone H3 (5 μM) was added in freshly prepared reaction buffer (50 mM Tris-HCl (pH 8.5), 5 mM MgCl2, 50 mM NaCl, 0.01% Brij35, 1 mM DTT, 1% DMSO). CARM1 was delivered into the substrate solution and the mixture was mixed gently. Afterwards, the tested compounds dissolved in DMSO were delivered into the enzyme/substrate reaction mixture by using Acoustic Technology (Echo 550, LabCyte Inc. Sunnyvale, CA) in nanoliter range, and 1 µM ^3H-SAM was also added into the reaction mixture to initiate the reaction. The reaction mixture was incubated for 1 h at 30 °C and then it was delivered to filter-paper for detection. The data were analyzed using Excel and GraphPad Prism software for IC50 curve fits. The experiments were performed in triplicate.

SIRT2 = target: T3, SIRT2 (Homo sapiens, UniProt Q8IXJ6); assay: Modified Fluor de Lys fluorescence-based assay, SIRT2; settings: from 200 μM; p53 379-382 AMC substrate, NAD+
T3 construct: host or cells: E. coli
Protocol: as §1
(§2) The SIRT inhibition assay was performed using human recombinant SIRT1 and SIRT2 produced in E. coli. Compounds were tested using a modified Fluor de Lys fluorescence-based assay kit based on the method described in the BioMol product sheet (AK-555, AK-556, Milan, Italy). […] The second stage is initiated by the addition of the Developer II (KI176), including nicotinamide (NAM), nicotinamide that stops the SIRT1/2 activity, and the fluorescent signal is produced. The fluorescence was measured on a fluorometric reader (Infinite 200 TECAN, Männedorf, Switzerland) with excitation set at 360 nm and emission detection set at 460 nm.

SIRT1 = target: T4, SIRT1 (Homo sapiens, UniProt Q96EB6); assay: Modified Fluor de Lys fluorescence-based assay, SIRT1; settings: from 200 μM; p53 379-382 AMC substrate, NAD+
T4 construct: host or cells: E. coli
Protocol: as §1, §2

T1 sequence (Q92831 492-658): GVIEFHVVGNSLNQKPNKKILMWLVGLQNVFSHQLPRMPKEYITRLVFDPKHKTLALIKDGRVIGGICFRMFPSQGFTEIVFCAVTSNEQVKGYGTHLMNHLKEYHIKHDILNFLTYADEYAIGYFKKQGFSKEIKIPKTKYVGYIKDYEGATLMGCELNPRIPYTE
Sequence of PRC2/EZH2 (Q15022 whole entry, the tested form may be a part): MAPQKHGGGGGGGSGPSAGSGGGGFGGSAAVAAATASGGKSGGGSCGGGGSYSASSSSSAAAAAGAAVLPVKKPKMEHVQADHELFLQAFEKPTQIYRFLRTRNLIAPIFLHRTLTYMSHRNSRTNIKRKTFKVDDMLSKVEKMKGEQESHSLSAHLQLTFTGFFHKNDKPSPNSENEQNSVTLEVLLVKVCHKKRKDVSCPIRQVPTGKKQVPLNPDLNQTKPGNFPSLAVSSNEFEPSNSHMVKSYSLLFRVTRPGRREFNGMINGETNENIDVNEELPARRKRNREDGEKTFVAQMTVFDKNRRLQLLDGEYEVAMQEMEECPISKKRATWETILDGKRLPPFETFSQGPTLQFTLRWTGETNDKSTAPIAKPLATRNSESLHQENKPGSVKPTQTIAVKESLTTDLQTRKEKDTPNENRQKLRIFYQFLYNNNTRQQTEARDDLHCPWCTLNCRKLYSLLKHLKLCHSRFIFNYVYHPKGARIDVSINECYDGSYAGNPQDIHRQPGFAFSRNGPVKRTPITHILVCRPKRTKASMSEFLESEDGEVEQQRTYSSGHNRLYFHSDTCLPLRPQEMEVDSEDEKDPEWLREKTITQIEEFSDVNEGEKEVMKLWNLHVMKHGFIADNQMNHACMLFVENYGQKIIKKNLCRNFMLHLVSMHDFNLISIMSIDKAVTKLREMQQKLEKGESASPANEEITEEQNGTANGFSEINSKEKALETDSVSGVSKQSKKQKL
Sequence of PRC2/EZH2 (Q09028 whole entry, further chain, the tested form may be a part): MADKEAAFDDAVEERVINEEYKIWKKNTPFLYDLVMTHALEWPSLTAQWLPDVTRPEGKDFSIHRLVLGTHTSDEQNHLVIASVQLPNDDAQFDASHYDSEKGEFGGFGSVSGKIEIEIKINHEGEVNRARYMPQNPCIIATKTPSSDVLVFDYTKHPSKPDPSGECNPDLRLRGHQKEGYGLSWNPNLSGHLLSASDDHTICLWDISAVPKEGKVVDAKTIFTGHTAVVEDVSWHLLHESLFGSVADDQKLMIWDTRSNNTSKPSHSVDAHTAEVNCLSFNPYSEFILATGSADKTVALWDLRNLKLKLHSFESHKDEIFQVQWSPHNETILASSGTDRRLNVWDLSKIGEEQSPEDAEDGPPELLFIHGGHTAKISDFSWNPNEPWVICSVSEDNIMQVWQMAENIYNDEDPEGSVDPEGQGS
Sequence of PRC2/EZH2 (Q6ZN18 whole entry, further chain, the tested form may be a part): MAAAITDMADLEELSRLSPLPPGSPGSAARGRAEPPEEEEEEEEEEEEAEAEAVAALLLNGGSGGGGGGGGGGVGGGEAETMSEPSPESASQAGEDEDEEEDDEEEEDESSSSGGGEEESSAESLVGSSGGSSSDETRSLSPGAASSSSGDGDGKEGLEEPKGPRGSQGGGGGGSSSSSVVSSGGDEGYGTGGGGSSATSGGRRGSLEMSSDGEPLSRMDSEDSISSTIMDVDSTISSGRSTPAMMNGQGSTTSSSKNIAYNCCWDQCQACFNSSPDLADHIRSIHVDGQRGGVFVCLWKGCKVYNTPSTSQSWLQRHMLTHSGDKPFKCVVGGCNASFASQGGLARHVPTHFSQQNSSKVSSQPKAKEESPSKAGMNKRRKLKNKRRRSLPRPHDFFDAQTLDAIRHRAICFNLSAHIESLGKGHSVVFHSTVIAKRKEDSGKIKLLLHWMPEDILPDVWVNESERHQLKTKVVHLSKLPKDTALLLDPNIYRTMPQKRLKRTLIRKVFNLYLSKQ
Sequence of PRC2/EZH2 (Q15910 whole entry, the tested form may be a part): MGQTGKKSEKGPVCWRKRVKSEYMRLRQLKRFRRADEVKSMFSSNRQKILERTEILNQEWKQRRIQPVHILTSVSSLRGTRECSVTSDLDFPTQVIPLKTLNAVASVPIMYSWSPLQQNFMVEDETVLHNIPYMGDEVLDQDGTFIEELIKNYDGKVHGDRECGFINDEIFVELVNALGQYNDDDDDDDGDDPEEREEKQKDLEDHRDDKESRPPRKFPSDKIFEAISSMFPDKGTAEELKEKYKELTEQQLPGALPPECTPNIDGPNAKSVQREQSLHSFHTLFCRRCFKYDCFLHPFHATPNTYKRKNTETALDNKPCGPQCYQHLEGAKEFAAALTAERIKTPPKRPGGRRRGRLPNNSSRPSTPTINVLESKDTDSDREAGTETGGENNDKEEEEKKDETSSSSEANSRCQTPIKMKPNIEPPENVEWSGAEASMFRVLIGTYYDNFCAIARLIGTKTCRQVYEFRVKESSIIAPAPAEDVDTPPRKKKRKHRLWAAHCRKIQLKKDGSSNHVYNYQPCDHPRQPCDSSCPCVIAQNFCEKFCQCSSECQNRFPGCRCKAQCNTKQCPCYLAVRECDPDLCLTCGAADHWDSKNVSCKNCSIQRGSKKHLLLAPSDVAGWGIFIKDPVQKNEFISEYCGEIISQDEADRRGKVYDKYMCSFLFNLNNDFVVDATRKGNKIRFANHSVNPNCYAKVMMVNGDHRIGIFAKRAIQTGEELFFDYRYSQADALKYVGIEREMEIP
Sequence of PRC2/EZH2 (O75530 whole entry, further chain, the tested form may be a part): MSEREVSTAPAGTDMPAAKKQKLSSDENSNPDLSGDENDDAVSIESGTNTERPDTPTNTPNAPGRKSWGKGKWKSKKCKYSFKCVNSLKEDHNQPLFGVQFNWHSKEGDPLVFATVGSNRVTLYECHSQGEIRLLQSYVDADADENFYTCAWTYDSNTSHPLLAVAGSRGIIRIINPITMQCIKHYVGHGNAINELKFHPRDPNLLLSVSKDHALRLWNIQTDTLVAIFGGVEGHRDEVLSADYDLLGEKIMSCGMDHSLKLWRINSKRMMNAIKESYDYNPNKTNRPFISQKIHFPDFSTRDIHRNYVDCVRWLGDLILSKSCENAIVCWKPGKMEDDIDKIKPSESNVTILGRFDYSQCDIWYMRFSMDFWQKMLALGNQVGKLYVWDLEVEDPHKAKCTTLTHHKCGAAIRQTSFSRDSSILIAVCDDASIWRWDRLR
T4 sequence (Q96EB6 whole entry): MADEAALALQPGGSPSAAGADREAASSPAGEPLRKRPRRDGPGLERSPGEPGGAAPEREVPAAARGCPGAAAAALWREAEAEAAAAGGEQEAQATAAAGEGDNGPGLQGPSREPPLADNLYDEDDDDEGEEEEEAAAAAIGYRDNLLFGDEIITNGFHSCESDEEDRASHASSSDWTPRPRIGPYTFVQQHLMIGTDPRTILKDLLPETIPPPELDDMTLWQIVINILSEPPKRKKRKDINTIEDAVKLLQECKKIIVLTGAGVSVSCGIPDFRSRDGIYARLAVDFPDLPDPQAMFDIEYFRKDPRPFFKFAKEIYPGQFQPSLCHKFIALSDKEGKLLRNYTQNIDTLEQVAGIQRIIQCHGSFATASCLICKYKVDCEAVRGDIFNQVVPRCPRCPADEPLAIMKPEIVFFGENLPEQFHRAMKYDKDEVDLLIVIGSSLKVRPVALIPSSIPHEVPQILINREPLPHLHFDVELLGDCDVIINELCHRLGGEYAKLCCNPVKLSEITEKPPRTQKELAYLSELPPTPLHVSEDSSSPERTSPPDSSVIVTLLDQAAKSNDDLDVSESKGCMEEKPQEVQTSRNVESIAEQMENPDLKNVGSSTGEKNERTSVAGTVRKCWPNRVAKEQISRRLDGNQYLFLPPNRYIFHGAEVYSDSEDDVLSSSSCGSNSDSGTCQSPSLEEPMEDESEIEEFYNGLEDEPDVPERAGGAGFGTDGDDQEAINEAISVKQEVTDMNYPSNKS
T3 sequence (Q8IXJ6 whole entry): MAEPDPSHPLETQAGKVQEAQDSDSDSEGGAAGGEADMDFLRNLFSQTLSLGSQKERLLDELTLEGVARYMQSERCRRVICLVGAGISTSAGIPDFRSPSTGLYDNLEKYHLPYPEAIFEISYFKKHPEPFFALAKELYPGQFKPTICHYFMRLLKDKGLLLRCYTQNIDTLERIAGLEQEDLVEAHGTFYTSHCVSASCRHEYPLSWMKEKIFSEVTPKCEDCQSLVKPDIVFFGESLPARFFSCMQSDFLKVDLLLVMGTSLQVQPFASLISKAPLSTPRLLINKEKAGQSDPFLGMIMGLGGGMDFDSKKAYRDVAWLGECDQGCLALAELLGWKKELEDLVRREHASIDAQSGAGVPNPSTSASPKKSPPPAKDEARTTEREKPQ

| Compound | IC50 (PRC2/EZH2) [µM] | IC50 (PCAF) [µM] | IC50 (CARM1) [µM] | IC50 (SIRT2) [µM] | IC50 (SIRT1) [µM] |
| --- | --- | --- | --- | --- | --- |
| O=C1/C(=C/c2ccccc2Br)CN(Cc2ccccc2)C/C1=C\c1ccccc1Br [Compound 4e, 1-benzyl-3,5-bis((E)-2-bromobenzylidene)piperidin-4-one] | 44.2 ± 0.2 | > 200 | 6.5 ± 0.86 | > 200 | > 200 |
| O=C1/C(=C/c2ccccc2Br)CN(CCc2ccccc2)C/C1=C\c1ccccc1Br [Compound 4f, 3,5-Bis((E)-2-bromobenzylidene)-1-phenethylpiperidin-4-one] | – | > 200 | 18.5 ± 0.9 | > 200 | > 200 |
| O=C1/C(=C/c2ccccc2Br)CN(CCCc2ccccc2)C/C1=C\c1ccccc1Br [Compound 4g, 3,5-Bis((E)-2-bromobenzylidene)-1-(3-phenylpropyl)piperidin-4-one] | – | > 200 | 12.6 ± 2.6 | > 200 | > 200 |
| O=C1/C(=C/c2ccccc2Br)CN(CC(=O)c2ccccc2)C/C1=C\c1ccccc1Br [Compound 4h, 3,5-Bis((E)-2-bromobenzylidene)-1-(2-oxo-2-phenylethyl)piperidin-4-one] | 46 ± 8.1 | > 200 | 5.52 ± 0.78 | > 200 | > 200 |
| O=C1/C(=C/c2ccccc2Br)CN(CCCC(=O)c2ccccc2)C/C1=C\c1ccccc1Br [Compound 4j, 3,5-Bis((E)-2-bromobenzylidene)-1-(4-oxo-4-phenylbutyl)piperidin-4-one] | 68.5 ± 6.2 | > 200 | 4.8 ± 1.72 | > 200 | > 200 |
| O=C1/C(=C/c2ccccc2Br)CN(C(=O)c2ccccc2)C/C1=C\c1ccccc1Br [Compound 4k, 1-Benzoyl-3,5-bis((E)-2-bromobenzylidene)piperidin-4-one] | 40.7 ± 15.3 | > 200 | 1.33 ± 0.14 | > 200 | > 200 |
| O=C1/C(=C/c2ccccc2Br)CN(C(=O)Cc2ccccc2)C/C1=C\c1ccccc1Br [Compound 4l, 3,5-Bis((E)-2-bromobenzylidene)-1-(2-phenylacetyl)piperidin-4-one] | 15.2 ± 2.2 | > 200 | 0.43 ± 0.12 | > 200 | > 200 |
| O=C1/C(=C/c2ccccc2Br)CN(C(=O)CCc2ccccc2)C/C1=C\c1ccccc1Br [Compound 4m, 3,5-Bis((E)-2-bromobenzylidene)-1-(3-phenylpropanoyl)piperidin-4-one] | 11.3 ± 0.08 | > 200 | 0.79 ± 0.06 | > 200 | > 200 |
| O=C1/C(=C/c2ccccc2Br)CN(C(=O)C=Cc2ccccc2)C/C1=C\c1ccccc1Br [Compound 4n, 3,5-Bis((E)-2-bromobenzylidene)-1-cinnamoylpiperidin-4-one] | 13.9 ± 1.8 | > 200 | 7.14 ± 2.54 | > 200 | > 200 |

Reference: paper PMC7397249, “Properly Substituted Cyclic Bis-(2-bromobenzylidene) Compounds Behaved as Dual p300/CARM1 Inhibitors and Induced Apoptosis in Cancer Cells” (Molecules, 2020)
